From PubChem BioAssay (NCI)
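All cell lines were grown in 96-well plates and treated with compound for 48 hours. At the TGI there is no net growth.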

Key:
Assay in all cases: NCI tumour cell line growth inhibition, 48 h
SK-MEL-2 melanoma = tested on: SK-MEL-2 melanoma
UACC-257 melanoma = tested on: UACC-257 melanoma
SK-OV-3 ovarian = tested on: SK-OV-3 ovarian
OVCAR-3 ovarian = tested on: OVCAR-3 ovarian
786-0 renal = tested on: 786-0 renal
SK-MEL-28 melanoma = tested on: SK-MEL-28 melanoma
OVCAR-4 ovarian = tested on: OVCAR-4 ovarian
M14 melanoma = tested on: M14 melanoma
BT-549 breast = tested on: BT-549 breast
NCI-H226 lung = tested on: NCI-H226 lung
A549 NSCLC = tested on: A549 NSCLC
PC-3 prostate = tested on: PC-3 prostate

Measured: TGI

COc1ccc(/C=c2\c(=O)[nH]c3nc4ccccc4c(=O)n23)cc1
> 100 µM: all assays above
